Key:
[1] = system: viruses; settings: blood products; cited from earlier work
[2] = system: SK-BR3; settings: 15 nM Pc 4, 5×10^6 cells/mL, 8 J/cm^2; cited from earlier work
[3] = system: cell lines and bone marrow samples; assay: Uptake of Pc 4; format: cell-based, murine
Procedure: (§1) Photosensitization. Aliquots of a 1.87 mM Pc 4 (kindly provided by Dr. M. E. Kenney) stock solution in dimethyl sulfoxide were kept at -80° C. in autoclaved brown glass vials. Immediately prior to the photosensitization, Pc4 was thawed and diluted in dimethyl formamide to yield a 10 μM working solution. […] Pc 4 was used at 15 nM throughout the experiments.

[4] = system: multidrug resistance (mdr) pump; assay: Uptake of Pc 4 by BM in presence of verapamil
Procedure: Uptake of Pc 4. Following a two hour incubation at 37° C. with 15 nM Pc 4, cell line and BM samples were analyzed for Pc 4 uptake by flow cytometry. BM samples were first incubated with anti-c-kit^PE (Pharmingen) and anti-Sca-1^FITC (Pharmingen), to allow analysis of the Pc 4 uptake in the committed progenitor fraction (c-kit^+,Sca-1^-) and the pluripotent stem cell fraction (c-kit^+,Sca-1^+) (Li, C. L. and G. R. Johnson Blood 85:1472 (1995)). Following a 20 minute incubation on ice, and two subsequent washes, the samples were incubated with 15 nM Pc 4. The relative Pc 4 uptake was calculated by subtracting the mean fluorescence signals of the untreated control samples from the mean Pc 4 fluorescence signals.

[5] = system: cell lines (ABE-8.1/2, BC3A, L1210, P815, WEHI-3); assay: Survival of cell lines after incubation with Pc 4; format: cell-based, murine; settings: Mus musculus, light or radiation study, read-out: surviving fractions of the cell lines after incubation
Procedure: (§2) Cell lines and culture conditions. WEHI-3 (murine myelocytic leukemia), L1210 (murine lymphocytic leukemia) and P815 (murine mastocytoma) cells were grown in RPMI 1640 (GibcoBRL, Grand Island, N.Y.) supplemented with 10% FBS. BC3A (murine leukemia) cells were grown in RPMI 1640 supplemented with 10 μM β-mercaptoethanol and 10% FBS; ABE-8.1/2 (murine pre-B lymphoma) cells were grown in DMEM (GibcoBRL)--10 μM β-mercaptoethanol--10% FBS. All cell lines were obtained from the American Type Culture Collection (Rockville, Md.) and were cultured at 37° C. in a humidified 5% CO2 -incubator. Prior to incubation with Pc 4, the cell lines were centrifuged and resuspended in phosphate buffered saline (PBS)--10% FBS, pH 7.4.
Photosensitization. […]
(§3) Cell line samples were plated (in triplicate) in a semi-solid medium which consisted of DMEM--20% vol/vol serum (2/3 horse serum, 1/3 FBS)--3 mM glutamine--60 μM β-mercaptoethanol--0.3% wt/vol agar. The samples were incubated at 37° C. in a humidified 5% CO2 -incubator, and colonies consisting of more than 50 cells were counted after nine days.
Statistics. […] Data are expressed as mean values±standard error of the mean (SEM). […] The significance of the differences between experimental values was assessed by means of the Student's t-test.

[6] = system: ABE-8.1/2 cells; assay: Photoinactivation of cell line, colony forming assay; format: cell-based, murine; settings: for fluence for photoinactivation to below the detection levels: 15 nM
Procedure: as §2, §1
(§4) BM and cell line samples, were incubated with 15 nM Pc 4 for two hours at 37° C. at cell concentrations of 1.5×10^7 cells/mL. Aliquots of 1.5 mL were transferred to 24-well plates; separate plates were used for each sample.
(§5) In a second set of experiments, the cells were incubated with 15 nM Pc 4 at cell concentrations of 1.5×10^6 cells/mL. Prior to photoirradiation, the samples were centrifuged and the supernatants were aspirated and set aside. The cell concentrations were adjusted to 1.5×10^7 cells/mL by adding back an appropriate volume of the Pc 4 containing aspirates.
(§6) Photoinactivation. The light source used was a filtered xenon short arc lamp (Versa-Light, Model UV-R6G, Medic Lightech, Ltd., Haifa, Israel). It was used to deliver red light (λ 600-700 nm) to the sensitized cells. After a 20 minute warm up period of the instrument, the distance from the light source to the bottom of the 24-well plate was adjusted to obtain a fluence rate of 26.6 mW/cm^2, as measured with a radiometer (Model IL 1350, International Light, Newburyport, Mass.). Samples were placed under the light source and were stirred during the irradiations. Before and after the irradiations, samples were kept in the dark.
as §3
(§7) Statistics. All assays were performed in triplicate unless mentioned otherwise. Data are expressed as mean values±standard error of the mean (SEM). Survival data are presented as surviving fractions relative to the surviving fractions of the untreated controls. The significance of the differences between experimental values was assessed by means of the Student's t-test.

[7] = system: L1210 cells; assay: as above; format: cell-based, murine; settings: for fluence for photoinactivation to below the detection levels: 15 nM
Procedure: as §2, §1, §4, §5, §6, §3, §7

[8] = system: BC3A cells; assay: as above; format: cell-based, murine; settings: for fluence for photoinactivation to below the detection levels: 15 nM
Procedure: as §2, §1, §4, §5, §6, §3, §7

[9] = system: WEHI-3 cells; assay: as above; format: cell-based, murine
Procedure: as §2, §1, §4, §5, §6, §3, §7

[10] = system: P815 cells; assay: as above; format: cell-based, murine
Procedure: as §2, §1, §4, §5, §6, §3, §7

Structure (SMILES): CN(C)CCC[Si](C)(C)O[Si]1(O)n2c3c4ccccc4c2N=C2N=C(N=c4c5ccccc5c(n41)=NC1=NC(=N3)c3ccccc31)c1ccccc12 (centres unmarked) [Pc 4, hydroxysiloxy-dimethylpropyl-N-dimethyl silicon phthalocyanine]
- photoinactivation of viruses [1]: effectively photoinactivate
- surviving fraction of human cells [2]: < 10^-5
- dependence of Pc 4 uptake on cell concentration ([3]; all cell types, 15 nM): inversely correlated with the cell concentration
- cellular Pc 4 concentration in BM fractions relative to cell lines ([3]; committed progenitors and pluripotent stem cells, corrected for cell volume): almost twice
- time to complete uptake ([3]; murine BM samples): complete after two hours
- effect of verapamil on uptake of Pc 4 ([4]; BM samples, verapamil during incubation): did not increase the uptake
- comparison with BPD-DA and benzochlorin ([4]; application with samples containing mdr^+ leukemic cells): compared favorable to BPD-DA
- substrate of the multidrug resistance pump ([4]; murine pluripotent stem cells): not a substrate
- viability at 0.015 µM [5]: 73 to 100%
- fluence for photoinactivation to below the detection levels ([6]; 1.5×10^6 cells/mL): 3 J/cm^2
- fluence for photoinactivation to below the detection levels ([6]; 1.5×10^7 cells/mL): 12 J/cm^2
- selectivity of photoinactivation towards the cell line ([6]; 1.5×10^6 cells/mL): approximately 5 log10
- selective photoinactivation ([6]; 1.5×10^7 cells/mL, 18 J/cm^2): > 6 log10
- fluence for photoinactivation to below the detection levels ([7]; 1.5×10^6 cells/mL): 6 J/cm^2
- fluence for photoinactivation to below the detection levels ([7]; 1.5×10^7 cells/mL): 18 J/cm^2
- selectivity of photoinactivation towards the cell line ([7]; 1.5×10^6 cells/mL): < 1 log10
- selective photoinactivation ([7]; 1.5×10^7 cells/mL, 18 J/cm^2): > 6 log10
- fluence for photoinactivation to below the detection levels ([8]; 1.5×10^6 cells/mL): 6 J/cm^2
- fluence for photoinactivation to below the detection levels ([8]; 1.5×10^7 cells/mL): 12 J/cm^2
- selectivity of photoinactivation towards the cell line ([8]; 1.5×10^6 cells/mL): approximately 5 log10
- selective photoinactivation ([8]; 1.5×10^7 cells/mL, 18 J/cm^2): > 6 log10
- fluence for photoinactivation to below the detection levels ([9]; 15 nM, 1.5×10^6 cells/mL): 12 J/cm^2
- selectivity of photoinactivation towards the cell line ([9]; 1.5×10^6 cells/mL): ~4 log10
- selective photoinactivation ([9]; 1.5×10^7 cells/mL, 18 J/cm^2): 5 log10
- viability at 0.015 µM ([9]; Mus musculus, WEHI-3, light or radiation study, read-out: surviving fraction): 0.00038%
- fluence for photoinactivation to below the detection levels ([10]; 15 nM, 1.5×10^6 cells/mL): 6 J/cm^2
- selectivity of photoinactivation towards the cell line ([10]; 1.5×10^6 cells/mL): ~3 logs
- selective photoinactivation ([10]; 1.5×10^7 cells/mL, 18 J/cm^2): > 3 log10
- viability at 0.015 µM ([10]; Mus musculus, P815, light or radiation study, read-out: surviving fraction): 0.053 ± 2.6e-06%
